Test results reported in patent publication US11427544B2, “Histone deacetylase 6 inhibitors and use thereof” (TAIPEI MEDICAL UNIVERSITY, priority 2016, dated 2022).

Columns and labels:
[1] = system: Aβ42 production in pCAX APP 695 plasmid-transfected Neuro 2a and SH—SYSY cells; assay: Aβ42 production in cell culture supernatants; type: cell-based; settings: pCAX APP 695 transfected Neuro 2a and SH—SYSY cells; 0.1-10 μM, 24 hours
Experimental: A study was conducted to evaluate the effect of compounds of Formula (I) in amyloid precursor protein (APP) levels and Aβ42 production.
Moreover, neuro 2a or SH—SYSY cells (1×10^5) were transfected with pCAX APP 695 plasmid for 24 hours, followed by incubation with Compound 12 or Compound 28 (0.1-10 μM) for another 24 hours. Cell culture supernatants were assayed for Aβ42 production.

[2] = biological target: T1, HDAC6 (Homo sapiens, UniProt Q9UBN7); assay: Fluorogenic HDAC assay, HDAC6; type: biochemical
T1 construct: purchased BPS Bioscience Corp
T1 sequence (Q9UBN7 1-1215): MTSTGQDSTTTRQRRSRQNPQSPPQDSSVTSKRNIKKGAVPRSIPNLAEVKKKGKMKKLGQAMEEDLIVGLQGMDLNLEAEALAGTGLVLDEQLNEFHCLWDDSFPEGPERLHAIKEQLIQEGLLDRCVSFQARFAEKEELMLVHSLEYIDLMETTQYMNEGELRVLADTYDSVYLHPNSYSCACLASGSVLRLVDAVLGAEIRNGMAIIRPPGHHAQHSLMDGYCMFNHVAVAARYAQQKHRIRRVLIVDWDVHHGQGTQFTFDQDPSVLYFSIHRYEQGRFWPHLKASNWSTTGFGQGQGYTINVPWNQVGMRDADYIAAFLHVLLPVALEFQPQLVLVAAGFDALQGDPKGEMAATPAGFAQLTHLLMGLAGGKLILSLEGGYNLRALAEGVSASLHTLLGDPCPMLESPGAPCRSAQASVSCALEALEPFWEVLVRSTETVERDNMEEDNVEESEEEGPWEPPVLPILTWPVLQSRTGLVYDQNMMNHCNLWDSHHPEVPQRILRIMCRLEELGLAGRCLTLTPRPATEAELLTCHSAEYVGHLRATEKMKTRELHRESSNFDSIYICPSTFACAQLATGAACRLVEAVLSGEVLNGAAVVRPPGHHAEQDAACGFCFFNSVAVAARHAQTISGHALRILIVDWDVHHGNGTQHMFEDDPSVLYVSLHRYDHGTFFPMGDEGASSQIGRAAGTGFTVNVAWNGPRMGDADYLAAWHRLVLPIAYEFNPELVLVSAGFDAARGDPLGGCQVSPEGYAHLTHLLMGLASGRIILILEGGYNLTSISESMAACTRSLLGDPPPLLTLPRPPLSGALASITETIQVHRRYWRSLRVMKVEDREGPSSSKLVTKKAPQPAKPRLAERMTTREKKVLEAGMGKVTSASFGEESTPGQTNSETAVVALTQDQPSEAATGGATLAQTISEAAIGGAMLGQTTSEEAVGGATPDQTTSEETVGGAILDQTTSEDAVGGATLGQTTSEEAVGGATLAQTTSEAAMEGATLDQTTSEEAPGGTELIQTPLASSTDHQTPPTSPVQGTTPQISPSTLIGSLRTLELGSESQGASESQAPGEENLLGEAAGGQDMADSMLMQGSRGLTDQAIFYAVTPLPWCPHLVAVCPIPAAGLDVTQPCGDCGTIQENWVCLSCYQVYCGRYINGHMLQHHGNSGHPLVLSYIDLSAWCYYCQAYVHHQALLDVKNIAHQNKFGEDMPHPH
Description: Of note, there are eighteen human HDACs. Eleven of them, designated as HDAC1-11, are zinc-dependent. Seven of them, designated as Sirt1-7, are NAD+-dependent.
Fluorogenic HDAC assay kits were used to assess the ability of HDAC inhibitors to inhibit deacetylation of lysine residues on a substrate by recombinant proteins HDAC1, 3, 4, 5, 6, 7, 8, 9 and Sirt1 according to the manufacturer's instructions (BPS Bioscience Corp., San Diego, Calif., USA).

[3] = system: Caspase-3, Caspase-8, and Caspase-9 cleavage in RPMI8226 and NCI-H929; assay: Cleavage of Caspase-3, -8 and -9 in multiple myeloma cells, combined with bortezomib; type: cell-based, human
Experimental: A study was conducted to evaluate the effect of a compound of Formula (I) combined with bortezomib in increasing cleavage of Caspase-3, Caspase-8, and Caspase-9 in multiple myeloma cells.
Cells (1×10^6) were incubated for 10 minutes at 4° C. in a lysis buffer solution in a culture vessel, and then scraped off the culture vessel, incubated on ice for another 10 minutes, and centrifuged at 17,000×g for 30 minutes at 4° C. Protein samples ([…]) were electrophoresed on SDS gels and transferred onto a nitrocellulose membrane, which was blocked by incubation with 5% fat-free milk in phosphate-buffered saline (PBS) for 30 minutes at room temperature. Immunoblotting was performed by overnight incubation at 4° C. with primary antibodies in PBS, followed by incubation for 1 hour at room temperature with horseradish peroxidase (HRP)-conjugated secondary antibodies, then bound antibodies were measured using enhanced chemiluminescence (ECL) reagent (Advansta Corp., Menlo Park, Calif., USA) and exposure to photographic film.
The study was performed according to the protocol reported in Yang et al., Journal of Molecular Medicine, 2014, November; 92(11):1147-1158.

[4] = system: RPMI8226, U266, and NCI-H929 multiple myeloma cell lines; assay: Apoptosis in multiple myeloma cells, combined with bortezomib (propidium iodide, FACScan); type: cell-based, human; settings: 24 hours
Experimental: A study was conducted to evaluate the effect of a compound of Formula (I) combined with bortezomib in inducing apoptosis in multiple myeloma cells.
To detect cell cycle progression, cells were incubated with or without the indicated agent for 24 hours, washed twice with ice-cold PBS, collected by centrifugation, and fixed in 70% (v/v) ethanol for 2 hours at −20° C. They were subsequently incubated for 30 minutes at room temperature with 0.2 mL of deoxyribonucleic acid (DNA) extraction buffer (0.2 M Na2HPO4 and 0.1 M citric acid buffer, pH 7.8), re-suspended in 1 mL of propidium iodide staining buffer (0.1% Triton X-100, 100 μg/mL of RNase A, and 80 μg/mL of propidium iodide in PBS), incubated at 37° C. for 30 minutes in darkness, sorted by FACScan, and analyzed using CellQuest software (BD Biosciences).
The study was performed according to the protocol reported in Hsieh et al., Cell Death and Disease, 2014, April; 5:e1166.

SMILES: O=C(NO)c1ccc(CNc2cccc3cccnc23)cc1 [Compound 28, N-hydroxy-4-((quinolin-8-ylamino)methyl)benzamide]
- Aβ42 production [1]: decreased Aβ42 production
- IC50 [2]: 4.41 nM
- cleavage of Caspase-3, Caspase-8, and Caspase-9 [3]: increased cleavage of Caspase-3, Caspase-8, and Caspase-9
- induction of apoptosis [4]: synergistically induced apoptosis
